Laboratory results as given in ChEMBL document CHEMBL1201862, “PubChem BioAssay data set” (2004).
Activity calls are given as the source filed them.

What was measured:
Aminopeptidase N = target: T1, Aminopeptidase N (Plasmodium falciparum FcB1/Columbia, UniProt O96935); experiment: malaria alanyl aminopeptidase activity blockers – biochemical, fluorogenic H-Leu-NHMec substrate, 1536-well (AID 1445); set-up: species or system Plasmodium falciparum 3D7, 3D7
T1 sequence (O96935 whole entry): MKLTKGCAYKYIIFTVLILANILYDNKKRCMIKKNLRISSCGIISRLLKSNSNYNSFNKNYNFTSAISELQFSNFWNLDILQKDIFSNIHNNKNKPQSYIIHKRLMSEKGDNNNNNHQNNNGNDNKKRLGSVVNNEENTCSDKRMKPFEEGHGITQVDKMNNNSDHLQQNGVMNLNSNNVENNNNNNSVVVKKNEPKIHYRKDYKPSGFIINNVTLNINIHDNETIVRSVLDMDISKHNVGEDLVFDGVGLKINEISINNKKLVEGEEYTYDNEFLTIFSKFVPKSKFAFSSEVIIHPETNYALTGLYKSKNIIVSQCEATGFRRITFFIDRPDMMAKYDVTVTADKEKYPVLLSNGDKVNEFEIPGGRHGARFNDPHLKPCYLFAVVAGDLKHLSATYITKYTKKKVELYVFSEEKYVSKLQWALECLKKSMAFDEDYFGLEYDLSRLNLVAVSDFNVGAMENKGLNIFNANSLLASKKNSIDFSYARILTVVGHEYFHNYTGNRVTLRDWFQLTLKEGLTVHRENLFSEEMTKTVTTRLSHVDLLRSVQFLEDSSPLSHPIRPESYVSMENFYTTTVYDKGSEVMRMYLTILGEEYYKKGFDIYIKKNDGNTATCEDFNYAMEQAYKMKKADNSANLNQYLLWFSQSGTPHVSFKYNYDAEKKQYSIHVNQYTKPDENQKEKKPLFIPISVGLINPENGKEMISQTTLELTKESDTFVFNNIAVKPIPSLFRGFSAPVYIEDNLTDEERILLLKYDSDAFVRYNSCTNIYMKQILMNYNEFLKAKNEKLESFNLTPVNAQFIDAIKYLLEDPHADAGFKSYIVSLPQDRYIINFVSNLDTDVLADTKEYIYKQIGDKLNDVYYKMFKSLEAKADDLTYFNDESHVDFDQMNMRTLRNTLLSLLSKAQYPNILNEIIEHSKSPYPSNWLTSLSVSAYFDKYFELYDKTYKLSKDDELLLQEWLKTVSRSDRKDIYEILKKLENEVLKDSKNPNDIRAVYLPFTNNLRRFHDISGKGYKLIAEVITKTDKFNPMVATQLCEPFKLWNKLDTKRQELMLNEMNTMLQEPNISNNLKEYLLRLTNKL

[1] = HPDE-C7 pancreatic duct cell viability loss – fluorescence, HTS (AID 430); assay type: functional, cell-based; conditions: Homo sapiens
[2] = viability loss of HPDE-C7K cells – cell-based, fluorescence, HTS, primary screen (AID 431); assay type: functional; conditions: Homo sapiens
[3] = target: T2, Corticotropin-releasing factor receptor 2/Corticotropin-releasing factor-binding protein (Homo sapiens, UniProt P24387+Q13324); experiment: activators of CRF receptor 2 with binding protein – uHTS hits, confirmation (AID 602473); assay type: functional; conditions: read-out: EC50_Mean
T2 sequence (Q13324 whole entry): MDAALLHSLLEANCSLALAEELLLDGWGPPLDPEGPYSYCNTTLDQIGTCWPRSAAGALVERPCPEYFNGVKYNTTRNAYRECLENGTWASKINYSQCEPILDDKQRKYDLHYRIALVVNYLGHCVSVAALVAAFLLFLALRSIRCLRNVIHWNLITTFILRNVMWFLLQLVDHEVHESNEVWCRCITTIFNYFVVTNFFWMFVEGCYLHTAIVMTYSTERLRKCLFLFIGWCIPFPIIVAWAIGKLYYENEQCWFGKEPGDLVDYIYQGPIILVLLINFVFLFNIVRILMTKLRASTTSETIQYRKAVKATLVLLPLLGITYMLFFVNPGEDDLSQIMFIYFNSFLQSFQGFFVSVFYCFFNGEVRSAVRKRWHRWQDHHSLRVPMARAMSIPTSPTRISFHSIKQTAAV
T2 sequence (P24387 whole entry): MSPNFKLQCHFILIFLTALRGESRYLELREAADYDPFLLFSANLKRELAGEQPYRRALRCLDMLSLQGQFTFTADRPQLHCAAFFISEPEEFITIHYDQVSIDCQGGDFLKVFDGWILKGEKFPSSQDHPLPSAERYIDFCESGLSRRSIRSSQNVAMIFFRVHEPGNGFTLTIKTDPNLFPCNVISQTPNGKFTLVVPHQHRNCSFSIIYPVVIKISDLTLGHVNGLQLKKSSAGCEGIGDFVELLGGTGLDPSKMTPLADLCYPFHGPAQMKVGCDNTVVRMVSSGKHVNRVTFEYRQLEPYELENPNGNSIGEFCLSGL

Fatty acid synthase [4] = target: T3, Fatty acid synthase (Homo sapiens, UniProt P49327); experiment: inhibition of human FAS-TE enzyme activity – biochemical, endpoint fluorescence intensity, uHTS hits, dose response (AID 624327); assay type: functional;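 further: fluorescence from hydrolysis of an O-methyl fluorescein acyl ester substrate by the enzyme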
[5] = target: T2, Corticotropin-releasing factor receptor 2/Corticotropin-releasing factor-binding protein; experiment: Dose Response confirmation of uHTS hits for small molecule antagonists of the CRF-binding protein and CRF-R2 receptor complex.; assay type: functional; conditions: read-out: IC50_Mean
Fatty acid synthase [6] = target: T3, Fatty acid synthase; experiment: inhibition of human FAS-TE enzyme activity – biochemical, kinetic fluorescence intensity, dose response (AID 624326); assay type: functional;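 further: rate of fluorescence rise from hydrolysis of a fluorogenic O-methyl fluorescein ester substrate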
Leucine aminopeptidase = target: T4, Leucine aminopeptidase (Plasmodium falciparum 3D7, UniProt Q8IL11); experiment: P. falciparum M17LAP inhibitors, primary screen, biochemical, fluorogenic H-Leu-NHMec substrate, 1536-well (AID 1619); assay type: functional
T4 sequence (Q8IL11 whole entry): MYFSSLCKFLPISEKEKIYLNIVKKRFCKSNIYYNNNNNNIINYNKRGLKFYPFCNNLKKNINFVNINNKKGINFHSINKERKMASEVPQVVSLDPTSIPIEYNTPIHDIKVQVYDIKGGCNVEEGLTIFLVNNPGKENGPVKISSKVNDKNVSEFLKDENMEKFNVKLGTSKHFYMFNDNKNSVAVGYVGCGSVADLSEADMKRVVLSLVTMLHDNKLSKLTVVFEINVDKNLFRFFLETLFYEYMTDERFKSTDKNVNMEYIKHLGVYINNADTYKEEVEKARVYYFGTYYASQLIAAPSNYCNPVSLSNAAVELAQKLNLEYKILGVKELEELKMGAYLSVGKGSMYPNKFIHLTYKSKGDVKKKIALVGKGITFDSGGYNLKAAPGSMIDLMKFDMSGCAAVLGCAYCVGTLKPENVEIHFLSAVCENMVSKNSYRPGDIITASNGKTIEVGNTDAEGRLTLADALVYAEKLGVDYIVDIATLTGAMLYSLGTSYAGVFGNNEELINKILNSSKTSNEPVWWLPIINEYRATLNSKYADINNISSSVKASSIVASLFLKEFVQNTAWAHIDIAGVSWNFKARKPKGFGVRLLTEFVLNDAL

Nonstructural protein 1 = Nonstructural protein 1 (Influenza A virus, UniProt Q194T2); assay type: functional, Influenza A virus (A/California/07/2009(H1N1))
[7] = system: Streptococcus sp. 'group A'; experiment: Streptococcus pyogenes SK(-)GAS viability under kanamycin – luminescence, BacTiterGlo, confirmation, counter-screen for streptokinase expression inhibitor project, dose response (AID 1900); assay type: functional, organism-based
Streptococcus = experiment: GAS UMAA2166 growth inhibition – luminescence, BacTiterGlo, counter-screen for streptokinase expression inhibitor project, dose response (AID 1915); assay type: functional, organism-based;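 further: potency for reduction of bacterial viability or growth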
[8] = target: T5, Voltage-gated N-type calcium channel alpha-1B subunit/Amyloid beta A4 precursor protein-binding family A member 1 (Homo sapiens, UniProt Q00975+Q02410); assay type: protein assay
[9] = target: T5, Voltage-gated N-type calcium channel alpha-1B subunit/Amyloid beta A4 precursor protein-binding family A member 1; assay type: protein assay; remark: listed apart in the source
[10] = HEK-293T cell viability reduction – luminescence, B-cell screen hits, cytotoxicity control for BCR NF-kB inhibitor project, dose response (AID 489021); assay type: functional, cell-based;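 further: HEK-293T cells carrying an NF-kB luciferase reporter; cells exposed to compound for about 14 hours before viability readout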
INS1 = experiment: INS-1E survival protection against cytokine death – cell-based, luminescence, retest, dose response (AID 449756); assay type: functional; conditions: Rattus norvegicus;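 further: cell death triggered by IL-1 beta plus TNF-alpha plus IFN-gamma mixture; protective hits raise ATP signal compared with cytokine alone wells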
[11] = target: T6, Tyrosine-protein phosphatase non-receptor type 7 (Homo sapiens, UniProt P35236); experiment: redox-active compounds inhibiting HePTP phosphatase – biochemical, fluorescence, mechanism study (AID 2068); assay type: functional
T6 sequence (P35236 whole entry): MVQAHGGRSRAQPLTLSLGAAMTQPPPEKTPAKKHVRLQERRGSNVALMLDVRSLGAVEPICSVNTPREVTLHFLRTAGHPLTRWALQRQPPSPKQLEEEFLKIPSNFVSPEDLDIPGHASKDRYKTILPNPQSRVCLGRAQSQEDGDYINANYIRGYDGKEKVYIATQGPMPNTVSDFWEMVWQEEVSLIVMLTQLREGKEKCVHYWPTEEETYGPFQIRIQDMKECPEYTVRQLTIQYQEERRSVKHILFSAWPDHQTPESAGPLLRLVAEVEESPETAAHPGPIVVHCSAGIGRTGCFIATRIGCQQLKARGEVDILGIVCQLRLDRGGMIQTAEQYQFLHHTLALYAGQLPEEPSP

[12] = blockers of HIV-1 ZM109 envelope-driven cell-cell fusion – HeLa effector, CEM target cells, luciferase, cherry-pick, dose response (AID 652058); assay type: functional, cell-based;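 further: luciferase signal from HIV-1 Env mediated cell-cell fusion of effector and target cells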
[13] = blockers of HIV-1 envelope-mediated cell-cell fusion – cherry-pick, dose response (AID 652057); assay type: functional, cell-based
[14] = HIV-1 AD8 envelope cell-cell fusion blockers – cherry-pick, dose response (AID 652062); assay type: functional, cell-based;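 further: luciferase signal from cell-cell fusion driven by HIV-1 clade B AD8 Env; potency is for inhibitors of fusion seen as a drop in luminescence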
[15] = toxicity to human hepatoma HepG2 cells – cell-based, cherry-picked samples, cytotoxicity control, dose response (AID 1159577); assay type: functional
[16] = P. falciparum Dd2 growth inhibitors, dose response, SYBR Green, cherry-picked samples (AID 1159567); assay type: functional, cell-based

T5 sequence (Q00975 whole entry): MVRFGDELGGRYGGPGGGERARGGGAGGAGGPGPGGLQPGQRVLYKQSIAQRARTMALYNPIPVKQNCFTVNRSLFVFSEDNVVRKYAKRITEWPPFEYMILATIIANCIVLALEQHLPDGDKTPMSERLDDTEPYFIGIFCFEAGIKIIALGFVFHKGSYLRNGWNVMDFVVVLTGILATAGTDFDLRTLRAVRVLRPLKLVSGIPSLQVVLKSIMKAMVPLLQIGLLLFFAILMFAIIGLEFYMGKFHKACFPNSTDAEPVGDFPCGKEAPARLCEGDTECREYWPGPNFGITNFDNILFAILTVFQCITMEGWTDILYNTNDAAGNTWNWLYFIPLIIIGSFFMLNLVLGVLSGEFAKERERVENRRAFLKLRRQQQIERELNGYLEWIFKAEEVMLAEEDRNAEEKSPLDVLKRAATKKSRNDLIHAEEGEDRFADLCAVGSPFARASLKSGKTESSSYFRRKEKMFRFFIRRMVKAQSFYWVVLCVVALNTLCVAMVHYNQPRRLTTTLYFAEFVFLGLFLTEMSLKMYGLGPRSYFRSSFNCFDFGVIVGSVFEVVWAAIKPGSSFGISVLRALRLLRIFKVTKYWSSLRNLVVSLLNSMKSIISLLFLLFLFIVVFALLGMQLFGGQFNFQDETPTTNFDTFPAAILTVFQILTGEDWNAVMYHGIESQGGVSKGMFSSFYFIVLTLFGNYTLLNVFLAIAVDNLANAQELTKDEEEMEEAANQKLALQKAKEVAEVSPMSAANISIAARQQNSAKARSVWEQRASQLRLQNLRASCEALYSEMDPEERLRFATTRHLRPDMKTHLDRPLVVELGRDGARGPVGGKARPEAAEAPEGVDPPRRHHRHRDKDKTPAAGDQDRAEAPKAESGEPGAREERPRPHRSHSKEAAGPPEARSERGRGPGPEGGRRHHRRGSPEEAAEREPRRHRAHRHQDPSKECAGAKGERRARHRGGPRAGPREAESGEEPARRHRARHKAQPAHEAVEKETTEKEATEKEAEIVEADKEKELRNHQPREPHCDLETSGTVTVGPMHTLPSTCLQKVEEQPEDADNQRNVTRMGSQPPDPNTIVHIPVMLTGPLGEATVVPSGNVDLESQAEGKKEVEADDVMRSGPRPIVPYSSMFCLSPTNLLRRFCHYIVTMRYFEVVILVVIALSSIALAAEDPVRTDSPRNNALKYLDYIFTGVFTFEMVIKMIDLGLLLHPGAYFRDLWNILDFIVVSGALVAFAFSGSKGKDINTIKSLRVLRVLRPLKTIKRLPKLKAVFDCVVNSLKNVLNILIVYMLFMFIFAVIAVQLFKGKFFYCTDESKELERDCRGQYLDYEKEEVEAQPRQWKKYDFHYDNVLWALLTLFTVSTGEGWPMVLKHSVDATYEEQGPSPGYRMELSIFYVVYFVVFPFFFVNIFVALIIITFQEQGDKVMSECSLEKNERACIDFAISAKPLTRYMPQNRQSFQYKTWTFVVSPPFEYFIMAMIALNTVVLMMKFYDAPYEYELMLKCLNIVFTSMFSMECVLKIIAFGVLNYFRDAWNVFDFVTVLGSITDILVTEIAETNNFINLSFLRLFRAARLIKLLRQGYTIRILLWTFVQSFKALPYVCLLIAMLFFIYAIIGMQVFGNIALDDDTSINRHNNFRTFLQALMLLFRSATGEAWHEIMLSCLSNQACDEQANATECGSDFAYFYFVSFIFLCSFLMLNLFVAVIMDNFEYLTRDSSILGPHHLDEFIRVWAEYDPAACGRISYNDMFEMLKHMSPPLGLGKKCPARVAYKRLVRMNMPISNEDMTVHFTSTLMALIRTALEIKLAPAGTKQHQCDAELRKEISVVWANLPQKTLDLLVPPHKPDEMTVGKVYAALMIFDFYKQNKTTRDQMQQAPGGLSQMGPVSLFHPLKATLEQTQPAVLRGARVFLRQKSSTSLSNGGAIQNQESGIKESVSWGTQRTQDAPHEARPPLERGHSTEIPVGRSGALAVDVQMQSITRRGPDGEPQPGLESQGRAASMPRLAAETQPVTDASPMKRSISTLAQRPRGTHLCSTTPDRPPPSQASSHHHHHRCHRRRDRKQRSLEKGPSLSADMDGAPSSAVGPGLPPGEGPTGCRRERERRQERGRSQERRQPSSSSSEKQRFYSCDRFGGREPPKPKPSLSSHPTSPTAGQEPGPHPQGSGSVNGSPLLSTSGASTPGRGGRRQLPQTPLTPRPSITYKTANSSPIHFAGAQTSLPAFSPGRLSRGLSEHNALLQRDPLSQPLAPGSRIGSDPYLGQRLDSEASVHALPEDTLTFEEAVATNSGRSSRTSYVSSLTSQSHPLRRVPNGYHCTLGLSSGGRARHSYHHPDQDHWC
T5 sequence (Q02410 whole entry): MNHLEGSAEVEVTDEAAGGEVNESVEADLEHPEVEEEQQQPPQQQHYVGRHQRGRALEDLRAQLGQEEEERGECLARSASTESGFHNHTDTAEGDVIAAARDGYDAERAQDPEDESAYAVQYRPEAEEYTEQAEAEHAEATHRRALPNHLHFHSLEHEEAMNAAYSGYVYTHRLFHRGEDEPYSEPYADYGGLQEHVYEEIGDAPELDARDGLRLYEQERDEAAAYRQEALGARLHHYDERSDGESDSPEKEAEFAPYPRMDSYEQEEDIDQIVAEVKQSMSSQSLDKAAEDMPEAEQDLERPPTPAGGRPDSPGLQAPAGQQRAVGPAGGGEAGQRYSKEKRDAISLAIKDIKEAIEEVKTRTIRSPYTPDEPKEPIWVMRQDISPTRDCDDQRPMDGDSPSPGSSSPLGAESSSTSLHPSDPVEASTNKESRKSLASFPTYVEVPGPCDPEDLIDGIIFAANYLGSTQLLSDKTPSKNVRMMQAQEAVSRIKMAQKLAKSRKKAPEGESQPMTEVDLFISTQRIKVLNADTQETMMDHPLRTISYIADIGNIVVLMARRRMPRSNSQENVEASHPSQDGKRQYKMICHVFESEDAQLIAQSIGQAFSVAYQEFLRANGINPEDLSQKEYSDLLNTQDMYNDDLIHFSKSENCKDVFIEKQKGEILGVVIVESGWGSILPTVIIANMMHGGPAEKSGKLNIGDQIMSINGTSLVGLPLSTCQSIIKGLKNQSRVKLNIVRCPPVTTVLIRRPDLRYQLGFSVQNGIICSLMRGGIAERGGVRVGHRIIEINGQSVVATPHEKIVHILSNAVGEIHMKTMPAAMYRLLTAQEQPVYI
Sequence of Nonstructural protein 1 (Q194T2 whole entry): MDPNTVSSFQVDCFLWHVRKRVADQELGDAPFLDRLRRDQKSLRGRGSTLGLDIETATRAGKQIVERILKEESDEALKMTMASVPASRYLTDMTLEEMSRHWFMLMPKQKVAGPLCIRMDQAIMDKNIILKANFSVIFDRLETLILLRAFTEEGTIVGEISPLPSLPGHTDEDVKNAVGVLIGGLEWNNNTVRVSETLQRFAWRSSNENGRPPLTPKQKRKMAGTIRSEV

SMILES: Cc1cc(=O)oc2c(CN3CCCCC3)c(O)c(Cl)cc12
- IC50 (Aminopeptidase N): 59.6 µM (active)

SMILES: Cc1c(N2C(=O)C(O)=C(C(=O)c3ccc(Cl)cc3)C2c2ccccc2)c(=O)n(-c2ccccc2)n1C (centres undefined)
- IC50 (Aminopeptidase N): 62.1 µM (active)

SMILES: CN(C)/C=C/C(=O)c1nnn(C2CCCCC2)c1NC1CCCCC1
- EC50 [1]: > 20 µM (not active)
- EC50 [2]: > 20 µM (not active)

SMILES: O=C1c2n[nH]c(-c3ccccc3O)c2C(c2ccccc2F)N1Cc1ccco1 (centres undefined)
- EC50 [1]: 13.1 µM (active)
- EC50 [2]: 15 µM (active)

SMILES: C/C=C/C=C/C(=O)OC(C)C(=O)Nc1cc([N+](=O)[O-])ccc1OC (centres undefined)
- EC50 [3]: > 53 µM (inactive)
- IC50 (Fatty acid synthase [4]): 4.02 µM (active)
- IC50 [5]: > 47.1 µM (inactive)
- IC50 (Fatty acid synthase [6]): 4.79 µM (active)

SMILES: COc1ccc(NC(=O)Cc2c(F)cccc2Cl)cc1
- IC50 (Leucine aminopeptidase): 13.6 µM (active)

SMILES: Cc1cccnc1NCc1ccc(O)c2ncccc12
- EC50 [1]: 13.6 µM (active)
- IC50 (Nonstructural protein 1): 14.1 µM (active)
- EC50 [2]: 10 µM (active)
- EC50 [7]: 2.9 µM (active)
- EC50 (Streptococcus): 3.33 µM (active)

SMILES: O=C(Nc1ccc(-n2ccnc2P(=O)(O)c2ccccc2)cc1)c1ccccc1Br
- IC50 (Aminopeptidase N): 11.2 µM (active)

SMILES: CCOC(=O)c1nnn2c1nc(Nc1cccc(C(F)(F)F)c1)c1ccccc12
- IC50 [8]: 25.1 µM (active)
- IC50 [9]: > 50 µM (inactive)

SMILES: Cc1c(C)c2cc(Cl)c(O)c(CN3CCCC(C)C3)c2oc1=O (centres undefined)
- IC50 (Aminopeptidase N): 43.1 µM (active)

SMILES: O=C(NNC(=O)c1ccccc1O)c1ccc(Cl)c(S(=O)(=O)N2CCc3ccccc32)c1
- IC50 [10]: 77.9 µM (inactive)
- AC50 (INS1): 4.28 µM (active)

SMILES: COc1ccc(-c2[nH]ncc2/C=C(\C#N)C(=O)NC2CC2)cc1
- IC50 (Leucine aminopeptidase): 36.9 µM (active)

SMILES: O=C(CSc1ccccc1C(=O)O)NCc1ccc(Cl)cc1
- IC50 (Leucine aminopeptidase): 17.4 µM (active)

SMILES: CCCCCCCCc1nnc(SC(C)C(=O)O)[nH]1 (centres undefined)
- IC50 (Leucine aminopeptidase): 5.32 µM (active)

SMILES: O=C(CCN1C(=O)/C(=C/c2ccc(Cl)cc2)SC1=S)NC1C=CS(=O)(=O)C1 (centres undefined)
- IC50 [8]: 8.45 µM (active)
- IC50 [9]: > 50 µM (inactive)

SMILES: O=C(Nc1ccc2nc(-c3ccco3)c(-c3ccco3)nc2c1)N1CCSCC1
- IC50 [11]: 3.36 µM (active)

SMILES: C[C@@H]1CN([C@@H](C)CO)S(=O)(=O)c2ccc(-c3ccccc3)cc2O[C@H]1CN(C)S(C)(=O)=O
- AC50 [12]: 44 µM (active)

SMILES: COc1cccc(S(=O)(=O)N2CCC3(CC2)CN(C(=O)Nc2cccc(F)c2)[C@@H](CO)c2[nH]c4cc(OC)ccc4c23)c1
- AC50 [12]: 6.68 µM (active)
- AC50 [13]: 6.21 µM (active)
- AC50 [14]: 8.03 µM (active)

SMILES: COc1ccc(C(=O)N/N=C/c2ccc(OC)c(CN3CCCc4ccccc43)c2)cc1
- IC50 [10]: > 80 µM (inactive)

SMILES: N#C[C@H]1[C@H](c2ccc(C#Cc3ccccc3F)cc2)[C@@H](CO)N1C(=O)C1CCCC1
- AC50 [15]: > 39 µM (inactive)
- AC50 [16]: 4.27 µM (active)

SMILES: N#C[C@H]1[C@H](c2ccc(C#CC3CCCCC3)cc2)[C@@H](CO)N1C(=O)Nc1ccc(F)cc1
- AC50 [15]: 9.27 µM (active)
- AC50 [16]: 4.35 µM (active)

SMILES: C[C@@H]1CN([C@H](C)CO)C(=O)c2c(c3ccccc3n2C)-c2ccccc2CO[C@@H]1CN(C)Cc1cccc(O)c1
- AC50 [15]: 17.2 µM (active)
- AC50 [16]: 4.04 µM (active)
